One series relates to HPRT. Nature of the series: HPRT forward mutation assay. It counts as cell-based. The conditions noted are these: concentrations above the compounds MIC's. From the text:
It is therefore confirmed that the compounds are non-mutagenic to mammalian DNA.

A short description of a further series: physchem. It counts as physicochemical. To be noted: pH 7.4, aqueous buffer, kinetic from dmso stock. As for the experimental part:
Table 12 illustrates the kinetic solubility of complexes 4^2+ and 4^4+ were tested and compared to a soluble positive control drug (Nicardipine). Both compounds passed the DMPK analysis with an optimal solubility and kinetic stability.

The subject of series [1] is E. coli wild type (MG1655). Description: MIC and MBC determination. The series is classed as cell-based. On the procedure: (§1) The bioactivity of these compounds was investigated with respect to the wild type K12-derivative MG1655 and uropathogenic multidrug resistant EC958 ST131 strains of E. coli. Another gram-positive bacteria, ESKAPE bacteria—the pathogenic gastrointestinal strain of Enterococcus faecalis, V583 (ATCC700802)—which is a major opportunistic pathogen (and a leading cause of urinary tract infections) was also tested with respect to the compounds. The minimum inhibitory concentration, MIC, of the four complexes was obtained in both glucose defined minimal media (GDMM) and nutrient rich Mueller-Hinton-II (MH-II) (FIG. 7).
(§2) The same parameters and conditions used above to determine MIC and MBC values with respect to compounds 1^4+ to 4^4+ were employed in order to test the MIC and MBC values of complexes 1^2+ to 4^2+.
(§3) The MIC and MBC values were determined as above.

Series [2] deals with E. faecalis pathogenic (V583). Description: MIC and MBC determination. It counts as cell-based, Enterococcus faecalis. As for the experimental part: as §1, §2, §3
The next series has as its system K. pneumonia biofilm. Description: Biofilm activity profile (MBEC). It counts as cell-based. To be noted: Gram-negative biofilm.
In another series the test system is A. baumannii biofilm. Description: Biofilm activity profile (MBEC). The series is classed as cell-based. To be noted: Gram-negative biofilm.
In a further series the test system is P. aeruginosa biofilm. Description: Biofilm activity profile (MBEC). The series is classed as cell-based. To be noted: Gram-negative biofilm.

Experimental findings from US12404291B2, “Antimicrobial agent” (priority 2019, dated 2025) are described below.

≈ marks a conversion by molar mass, not a printed value.

In the series with HPRT, `N.N.[Cl][Pt][Cl]` [Cisplatin] gave a Mutations of 65.5 per 1 × 10^5 viable cells.

For orientation: solubility means the dissolved amount per volume that the medium holds. As to `COC(=O)C1=C(C)NC(C)=C(C(=O)OCCN(C)Cc2ccccc2)C1c1cccc([N+](=O)[O-])c1` (stereo not drawn) [Nicardipine], the solubility in “physchem” is 20.8 µM (≈ 10 µg/mL); in the series “physchem” (Solubility) it was 20.8 µM (≈ 9.97 µg/mL).

As usually defined, the MBC is the smallest concentration meeting the test's criterion for killing. High values mean less potent killing, low ones more potent killing. By MIC is commonly meant the smallest concentration in the dilution series that meets the test's criterion for growth inhibition. A higher MIC goes with weaker potency. For the molecule `CC1(C)S[C@@H]2[C@H](NC(=O)[C@H](N)c3ccccc3)C(=O)N2[C@H]1C(=O)O` [ampicillin], the minimum bactericidal concentration (MBC) in series [1] (Escherichia coli, MG1655, GDMM) was 11.4 µM (≈ 3.98 µg/mL); in series [1] (MH-II), 11.4 µM (≈ 3.98 µg/mL); in series [2] (Enterococcus faecalis, GDMM) it was 6.3 µM (≈ 2.2 µg/mL); in series [2] (MH-II) it was 6.3 µM (≈ 2.2 µg/mL). For the same molecule, the MIC in series [2] (Enterococcus faecalis, MH-II) is 0.5 µM (≈ 0.175 µg/mL); in series [2] (Enterococcus faecalis, GDMM), 1 µM (≈ 0.349 µg/mL).

With Gentamicin, the “Minimum Biofilm Eradication Concentration (MBEC)” value with K. pneumonia biofilm turned out to be 18 µM; in the series with A. baumannii biofilm, 9 µM; in the series on P. aeruginosa biofilm, 18 µM.
